Measured values: US9776972B2, “Pyrazole derivatives as arginine methyltransferase inhibitors and uses thereof” (priority 2013, dated 2017)

target: human PRMT3 (Homo sapiens, UniProt O60678); assay: PRMT3 Biochemical Assay (3H-SAM Flashplate, peptide substrate); settings: single experiment or average of multiple experiments
Description: S-adenosylmethionine (SAM), S-adenosylhomocysteine (SAH), bicine, Tween20, dimethylsulfoxide (DMSO), bovine skin gelatin (BSG), isopropyl-β-D-thiogalactopyranoside (IPTG), and Tris(2-carboxyethyl)phosphine hydrochloride solution (TCEP) were purchased from Sigma-Aldrich at the highest level of purity possible. ^3H-SAM was purchase from American Radiolabeled Chemicals with a specific activity of 80 Ci/mmol. 384-well streptavidin Flashplates were purchased from PerkinElmer.
Peptide containing the classic RMT substrate motif was synthesized with an N-terminal linker-affinity tag motif and a C-terminal amide cap by 21st Century Biochemicals. The peptide was purified by high-performance liquid chromatography (HPLC) to greater than 95% purity and confirmed by liquid chromatography mass spectrometry (LC-MS). The sequence was Biot-Ahx-[…]-amide (SEQ ID NO.:11).
Full-length human PRMT3 (NM_005788.3) isoform 1 transcript clone was amplified from an HEK 293 cDNA library and subcloned into pGEX-KG (GE Life Sciences). The resulting construct encodes an N-terminal GST tag and a thrombin cleavage sequence ([…] […] […] […]) (SEQ ID NO.: 12) fused directly to Cys 2 of PRMT3.
E. coli (BL21(DE3) Gold, Stratagene) made competent by the CaCl2 method were transformed with the PRMT3 construct and ampicillin selection. Protein over-expression was accomplished by growing the PRMT3 expressing E. coli clone and inducing expression with 0.3 mM IPTG at 16° C. The culture was grown for 12 hours, harvested by centrifugation, and stored at −80° C. for purification.
GST-tagged PRMT3 was eluted with 50 mM Tris, 2 mM glutathione, pH 7.1 and 50 mM Tris, 20 mM glutathione, pH 7.1. Pooled fractions were dialysed in 20 mM Tris, 50 mM NaCl, 5% glycerol, 1 mM EDTA, 1 mM DTT, pH7.5 (Buffer B) and applied to a Q Sepharose Fast Flow column. GST-tagged PRMT3 was eluted by 500 mM NaCl in buffer B. Pooled fractions were dialyzed in 25 mM phosphate buffer, 100 mM NaCl, 5% glycerol, 2 mM DTT, pH 6.8 (Buffer C) and loaded on to a ceramic hydroxyapatite column. GST-tagged PRMT3 eluted with 25-400 mM phosphate in buffer C. Protein was concentrated and buffer was exchanged to 20 mM Tris, 150 mM NaCl, 5% glycerol, 5 mM β-mercaptoethanol, pH7.8 by ultrafiltration. The purity of recovered protein was 70%.
General Procedure for PRMT3 Enzyme Assays on Peptide Substrates.
The assays were all performed in a buffer consisting of 20 mM Bicine (pH=7.6), 1 mM TCEP, 0.005% BSG, and 0.002% Tween 20, prepared on the day of use. Compounds in 100% DMSO (1 ul) were spotted into a polypropylene 384-well V-bottom plates (Greiner) using a Platemate Plus outfitted with a 384-channel head (Thermo Scientific). DMSO (1 ul) was added to Columns 11, 12, 23, 24, rows A-H for the maximum signal control and 1 ul of SAH, a known product and inhibitor of PRMT3, was added to columns 11, 12, 23, 24, rows I-P for the minimum signal control. A cocktail (40 ul) containing the PRMT3 enzyme was added by Multidrop Combi (Thermo-Fisher). The compounds were allowed to incubate with PRMT3 for 30 min at room temperature, then a cocktail (10 ul) containing SAM and peptide was added to initiate the reaction (final volume=51 ul). The final concentrations of the components were as follows: PRMT3 was 0.5 nM, ^3H-SAM was 100 nM, non-radiolabeled SAM was 1.8 uM, peptide was 330 nM, SAH in the minimum signal control wells was 1 mM, and the DMSO concentration was 2%. The assays were stopped by the addition of potassium chloride (10 ul) to a final concentration of 100 mM. 50 ul of the reaction in the 384-well polypropylene plate was then transferred to a 384-well Flashplate and the biotinylated peptides were allowed to bind to the streptavidin surface for at least 1 hour before being washed once with 0.1% Tween20 in a Biotek ELx405 plate washer. […]

human PRMT3, sequence (O60678 with tags, fused parts or gaps): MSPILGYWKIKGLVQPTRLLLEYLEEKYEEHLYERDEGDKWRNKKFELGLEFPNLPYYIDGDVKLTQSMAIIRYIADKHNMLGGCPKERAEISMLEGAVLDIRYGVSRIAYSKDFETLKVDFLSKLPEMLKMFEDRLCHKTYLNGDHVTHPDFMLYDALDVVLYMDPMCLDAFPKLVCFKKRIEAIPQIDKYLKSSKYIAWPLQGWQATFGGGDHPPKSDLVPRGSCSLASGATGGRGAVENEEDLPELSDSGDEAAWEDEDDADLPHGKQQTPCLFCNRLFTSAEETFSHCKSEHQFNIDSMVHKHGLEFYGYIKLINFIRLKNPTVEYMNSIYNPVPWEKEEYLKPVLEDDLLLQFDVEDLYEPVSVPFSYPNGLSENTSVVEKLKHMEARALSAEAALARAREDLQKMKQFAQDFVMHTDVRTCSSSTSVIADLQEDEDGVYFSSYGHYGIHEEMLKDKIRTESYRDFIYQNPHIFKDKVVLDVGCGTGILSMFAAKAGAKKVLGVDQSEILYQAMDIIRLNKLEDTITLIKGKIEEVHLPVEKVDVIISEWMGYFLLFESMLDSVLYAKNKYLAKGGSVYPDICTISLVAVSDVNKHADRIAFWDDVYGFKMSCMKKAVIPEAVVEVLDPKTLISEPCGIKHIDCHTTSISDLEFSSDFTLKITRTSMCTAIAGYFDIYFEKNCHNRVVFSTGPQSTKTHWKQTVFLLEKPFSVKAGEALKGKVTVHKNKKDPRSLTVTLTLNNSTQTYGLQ

SMILES | IC50
COCCn1ncc(CN(C)CCN)c1-c1ccc(F)cc1 [Compound 6] | > 50 µM
CCn1ncc(CN(C)CCNC)c1-c1ccc(F)cc1 [Compound 7] | 26 µM
CCn1cc(CN(C)CCNC)c(-c2ccc(F)cc2)n1 [Compound 8] | > 50 µM
CN(CCN)Cc1c[nH]nc1-c1ccc(OCC(F)(F)F)cc1 [Compound 96] | 3.14 µM
CC(C)Oc1ccc(-c2n[nH]cc2CN(C)CCN)cc1F [Compound 97] | 3.5 µM
CN(CCN)Cc1c[nH]nc1-c1ccc(C2CCOCC2)cc1 [Compound 98] | 0.684 µM
CN(CCN)Cc1n[nH]cc1-c1ccc(C#N)cc1 [Compound 100] | 7.26 µM
CN(CCN)Cc1n[nH]cc1-c1ccc(Cl)cc1 [Compound 102] | 6.16 µM
CN(CCN)Cc1n[nH]cc1-c1ccc(OC(F)(F)F)cc1 [Compound 105] | 9.83 µM
COc1ccc(-c2n[nH]cc2CN(C)CCN)c(F)c1 [Compound 107] | 8 µM
Cc1cc(C#N)ccc1-c1n[nH]cc1CN(C)CCN [Compound 110] | 7.21 µM
CN(CCN)Cc1c[nH]nc1-c1cc(F)cc(F)c1 [Compound 111] | 5.39 µM
CN(CCN)Cc1c[nH]nc1-c1ccc(OC2CC2)cc1 [Compound 114] | 3.2 µM
CN(CCN)Cc1c[nH]nc1-c1ccc(C2CC2)cc1 [Compound 116] | 2.78 µM
CN(CCN)Cc1c[nH]nc1-c1ccc(C(F)(F)F)c(Cl)c1 [Compound 117] | 2.3 µM
CN(CCN)Cc1n[nH]cc1-c1ccc(OC2CC2)cc1 [Compound 119] | 9.6 µM
CN(CCN)Cc1c[nH]nc1-c1cc(F)cc(Cl)c1 [Compound 121] | 2.88 µM
COc1ccc(-c2n[nH]cc2CN(C)CCN)cc1Cl [Compound 125] | 4.32 µM
COc1cc(Cl)cc(-c2n[nH]cc2CN(C)CCN)c1 [Compound 127] | 5.65 µM
CN(CCN)Cc1c[nH]nc1-c1ccc(Cl)cc1F [Compound 132] | 3.98 µM
CN(CCN)Cc1c[nH]nc1-c1cc(Cl)cc(Cl)c1 [Compound 137] | 7.58 µM
CN(CCN)Cc1c[nH]nc1-c1ccc(C(F)(F)F)c(F)c1 [Compound 141] | 3.47 µM

Other lines, results leading:

IC50 | SMILES
9.91 µM | Cc1ccc(-c2n[nH]cc2CN(C)CCN)c(F)c1 [Compound 108]
3.68 µM | CC(=O)c1cccc(-c2n[nH]cc2CN(C)CCN)c1 [Compound 112]
8.32 µM | CC(O)c1ccc(-c2n[nH]cc2CN(C)CCN)cc1 (centres unmarked) [Compound 115]
1.04 µM | CN(CCN)Cc1c[nH]nc1-c1ccc(Cl)c(F)c1 [Compound 118]
5.01 µM | CN(CCN)Cc1c[nH]nc1-c1cccc(Cl)c1 [Compound 122]
3.92 µM | CN(CCN)Cc1c[nH]nc1-c1cccc(Cl)c1F [Compound 123]
2.22 µM | CN(CCN)Cc1c[nH]nc1-c1ccc(F)c(Cl)c1 [Compound 124]
2.55 µM | Cc1ccc(-c2n[nH]cc2CN(C)CCN)cc1Cl [Compound 126]
9.91 µM | Cc1c(F)cccc1-c1n[nH]cc1CN(C)CCN [Compound 129]
6.46 µM | COc1cccc(-c2n[nH]cc2CN(C)CCN)c1 [Compound 130]
3.57 µM | Cc1cccc(-c2n[nH]cc2CN(C)CCN)c1 [Compound 131]
4.1 µM | Cc1cc(Cl)ccc1-c1n[nH]cc1CN(C)CCN [Compound 133]
5.44 µM | COc1ccc(-c2n[nH]cc2CN(C)CCN)cc1F [Compound 134]
5.21 µM | CN(CCN)Cc1c[nH]nc1-c1ccccc1C#N [Compound 140]
4.83 µM | COc1cc(-c2n[nH]cc2CN(C)CCN)ccc1F [Compound 142]
8.37 µM | CCN(CC)C(=O)c1ccc(-c2n[nH]cc2CN(C)CCN)cc1 [Compound 143]
